From patent US7855199B2, “Heterocyclic compound and anti-malignant-tumor agent containing the same as active ingredient” (Zenyaku Kogyo Kabushiki Kaisha, priority 2004, dated 2010) come the findings set out here.

Series [1] is described as follows: Test 1 (Pharmacokinetics Study), oral administration to mice, serum drug concentration by HPLC. The series is classed as in vivo. As to conditions: male, BDF1, mouse, oral 200 mg/kg, mice fasting for 16 hours, 1-24 hours after administration, read-out: AUC1h-24h. Here is the method: Pharmacokinetics study was conducted, using six-week-old BDF1 male mice. Test compound was dissolved in dichloromethane together with hydroxypropyl cellulose (low-molecular weight)(HPC(L)) 2.5 times as much as the drug weight, dried under reduced pressure and was suspended in distilled water so as to have the drug concentration of 20 mg/mL. The test compound was forcedly orally administered to mice fasting for 16 hours with dose of 200 mg/kg. One, two, four, eight and 24 hours after the administration, blood was collected from orbit of two mice to obtain serum 100 μL of the obtained serum was added with internal standard solution and 1 mL of distilled water and then test compound and internal standard substance were extracted from the resulting mixture by diethyl ether. The organic layers were evaporated to dryness under reduced pressure and residues were dissolved in eluent to obtain HPLC measurement sample. The analysis was performed by HPLC with reversed-phase column and the eluent used was acetonitrile-phosphate buffer (pH 2.5). The drug concentration in the test serum was calculated by the calibration curve (Y=aX+b) obtained from standard substance. Area under the curve (AUC1h-24h) was calculated from the drug concentration in the serum, using WinNonlin (produced by the firm Pharsight, ver. 4.01).

Series [2] relates to Human colon cancer WiDr. The experiment in a line: Test 2 (In Vivo Antitumor Test), subcutaneous WiDr tumor in nude mice. As to conditions: oral 100 mg/kg once a day, six times a week, for two weeks; for evaluation: T/C of the last day and Mann-Whitney U-assay; for T/C (%): relative tumor growth rate, last day. Details: species or system mutant BALB/c nude mice; key to evaluation: Cases where T/C (%) of the last day was less than 50% and U-assay of Mann-Whitney revealed significant difference with one-sided risk rate of 1% were evaluated to be effective (+); ineffective (−). How it is done:
Human colon cancer WiDr was grown as subcutaneous tumor in mutant BALB/c nude mice. 2-mm-cube tumor fragments were transplanted subcutaneously into left flank of the nude mice. When the tumor reached logarithmic growth phase, mice were divided randomly into test groups consisting five mice per group. The samples prepared by dissolving test compound in dichloromethane with a ratio of the test compound to HPC(L) being 1:2.5, dried under reduced pressure and suspended in distilled water. The samples were then orally administered at a rate of test compound 100 mg/kg, once a day and six times a week in total, for two weeks. The length and width of the tumor mass were measured on a daily basis to calculate tumor volume. The tumor volume at each measured day was divided by that at the start day of the sample administration to calculate relative tumor growth rate; and the relative tumor growth rate of the treated groups (T) and that of the control group (C) were used to calculate T/C(%).

For series [3], the system named is Human colon cancer WiDr. The experiment in a line: in vitro antitumor test (50% growth inhibition concentration). Type of series: cell-based. Here is the method: This was also supported by the results of Table 3 below showing test results of in vitro antitumor test (comparative tests in 50% growth inhibition concentrations (GI50 μM) to Human colon cancer WiDr).

`COc1cccc2c1nc(C(F)F)n2-c1nc(N2CCOCC2)cc(N2CCO[C@@H](C)[C@H]2C)n1` (relative stereo) [compound 3, 2-(2-difluoromethyl-4-methoxybenzimidazol-1-yl)-4-(cis-2,3-dimethylmorpholino)-6-morpholinopyrimidine] had a melting point of 176 to 178 °C. Also, in series [1], the AUC(0-t) turned out to be 87 µg·h/mL.

In the case of `COc1cccc2c1nc(C(F)F)n2-c1nc(N2CCOCC2)cc(N2C[C@H](C)O[C@@H](C)C2)n1` (relative stereo) [compound 4, 2-(2-difluoromethyl-4-methoxybenzimidazol-1-yl)-4-(trans-2,6-dimethylmorpholino)-6-morpholinopyrimidine], the AUC(0-t) in series [1] was 138 µg·h/mL.

As to `C[C@@H]1OCCN(c2cc(N3CCOCC3)nc(-n3c(C(F)F)nc4c(O)cccc43)n2)[C@@H]1C` (relative stereo) [compound C, 2-(2-difluoromethyl-4-hydroxybenzimidazol-1-yl)-4-(cis-2,3-dimethylmorpholino)-6-morpholinopyrimidine, reference compound], the AUC(0-t) in series [1] was found to be 17 µg·h/mL.

Regarding `C[C@H]1CN(c2cc(N3CCOCC3)nc(-n3c(C(F)F)nc4c(O)cccc43)n2)C[C@H](C)O1` (relative stereo) [compound D, 2-(2-difluoromethyl-4-hydroxybenzimidazol-1-yl)-4-(trans-2,6-dimethylmorpholino)-6-morpholinopyrimidine, reference compound], the AUC(0-t) in series [1] worked out at 68 µg·h/mL.

In the case of `COc1cccc2c1nc(C(F)F)n2-c1nc(N2CCOCC2)cc(N2C[C@@H](C)O[C@@H](C)C2)n1` [compound 1, 2-(2-difluoromethyl-4-methoxybenzimidazol-1-yl)-4-(cis-2,6-dimethylmorpholino)-6-morpholinopyrimidine], in the series on Human colon cancer WiDr [2], the evaluation result was “+ (Cases where T/C (%) of the last day was less than 50% and U-assay of Mann-Whitney revealed significant difference with one-sided risk rate of 1% were evaluated to be effective (+))”; the “T/C (%)” value is listed as 35.7%. The compound further came in with a GI50 in the series on Human colon cancer WiDr [3] of 0.45 µM. The AUC(0-t) in series [1] came out at 332 µg·h/mL.

`COc1cccc2c1nc(C(F)F)n2-c1nc(N2CCOCC2)cc(N2CCOC(C)(C)C2)n1` [compound 2, 2-(2-difluoromethyl-4-methoxybenzimidazol-1-yl)-4-(2,2-dimethylmorpholino)-6-morpholinopyrimidine] yielded a melting point of 166 to 168 °C. Further, in the series on Human colon cancer WiDr [2], the evaluation entry was “+ (Cases where T/C (%) of the last day was less than 50% and U-assay of Mann-Whitney revealed significant difference with one-sided risk rate of 1% were evaluated to be effective (+))”; the “T/C (%)” value worked out at 28.8%. The GI50 in the series on Human colon cancer WiDr [3] was found to be 0.14 µM. The AUC(0-t) in series [1] came out at 146 µg·h/mL.

For the compound `COc1cccc2c1nc(C(F)F)n2-c1nc(N2CCOCC2)cc(N2CCOCC2)n1` [compound 5, 2-(2-difluoromethyl-4-methoxybenzimidazol-1-yl)-4,6-dimorpholinopyrimidine], the melting point is 203 to 205 °C.

`COc1cccc2c1nc(C(F)F)n2-c1nc(N2CCOCC2)nc(N2C[C@@H](C)O[C@@H](C)C2)n1` [compound 6, 2-(2-difluoromethyl-4-methoxybenzimidazol-1-yl)-4-(cis-2,6-dimethylmorpholino)-6-morpholino-1,3,5-triazine] came in with a melting point of 235 to 237 °C.

`COc1cccc2c1nc(C(F)F)n2-c1nc(N2CCOCC2)nc(N2CC(C)(C)OCC2(C)C)n1` [compound 7, 2-(2-difluoromethyl-4-methoxybenzimidazol-1-yl)-4-(2,2,5,5-tetramethylmorpholino)-6-morpholino-1,3,5-triazine] had a melting point of 209 to 211 °C.

The compound `CCOc1cccc2c1nc(C(F)F)n2-c1nc(N2CCOCC2)cc(N2CCOCC2)n1` [compound 8, 2-(2-difluoromethyl-4-ethoxybenzimidazol-1-yl)-4,6-dimorpholinopyrimidine] gave a melting point of 188 to 190 °C.

For the compound `CCOc1cccc2c1nc(C(F)F)n2-c1nc(N2CCOCC2)cc(N2CCOC(C)(C)C2)n1` [compound 9, 2-(2-difluoromethyl-4-ethoxybenzimidazol-1-yl)-4-(2,2-dimethylmorpholino)-6-morpholinopyrimidine], the melting point was in the range of 114 to 116 °C. Also, the AUC(0-t) in series [1] was 88 µg·h/mL.

For the compound `C[C@@H]1CN(c2cc(N3CCOCC3)nc(-n3c(C(F)F)nc4c(O)cccc43)n2)C[C@H](C)O1` [compound A, 2-(2-difluoromethyl-4-hydroxybenzimidazol-1-yl)-4-(cis-2,6-dimethylmorpholino)-6-morpholinopyrimidine], in the series on Human colon cancer WiDr [2], the evaluation result is reported as “−” and the “T/C (%)” value was 78.3%. The GI50 with Human colon cancer WiDr [3] is 0.15 µM. The AUC(0-t) in series [1] came out at 17 µg·h/mL.

On to `CC1(C)CN(c2cc(N3CCOCC3)nc(-n3c(C(F)F)nc4c(O)cccc43)n2)CCO1` [compound B, 2-(2-difluoromethyl-4-hydroxybenzimidazol-1-yl)-4-(2,2-dimethylmorpholino)-6-morpholinopyrimidine, reference compound], for which, in the series with Human colon cancer WiDr [2], the evaluation entry is reported as “−” and the “T/C (%)” value turned out to be 88.4%. This compound also showed a GI50 in the series with Human colon cancer WiDr [3] of 0.09 µM. The AUC(0-t) in series [1] worked out at 5 µg·h/mL.

A word on the melting point: it is the temperature, or range, at which the solid turns liquid. As a reminder, the GI50 is the concentration giving 50% growth inhibition.
